The results in this text go back to patent US9040563B2, “Dual inhibitors of farnesyltransferase and geranylgeranyltransferase I” (H. Lee Moffitt Cancer Center and Research Institute, Inc., priority 2010, dated 2015).

Where two headings read alike, the source gives them in different places.

One assay has as its target hFTase (Homo sapiens, UniProt P49354+P49356). Kind of assay: In vitro hFTase inhibition: incorporation of [3H]FPP into recombinant H-Ras-CVLS. The format is biochemical.
For the next assay, the system named is A549. In words: MTT proliferation/viability assay. The format is cell-based, human. Particulars: Homo sapiens, A549, lung. The procedure: (§1) To determine if FGTI-2734 is more efficacious than FT or GGT-1 inhibitors, 10 human cancer pancreatic cell lines, 2 human breast cancer cell lines, 2 human lung cancer cell lines and one human prostate cancer cell line were treated with these inhibitors and determined their effects on the proliferation of these cells by MTT assay.

A further assay has as its system Panc-1. In words: MTT proliferation/viability assay. The format is cell-based, human. Particulars: Homo sapiens, Panc-1, pancreas. The method, then:
as §1

The test system of a further assay is HPDE-C7-Kras. In words: MTT proliferation/viability assay. It is filed as cell-based, human. Particulars: pancreas. The method, then: as §1
The subject of assay [1] is Rap-1A geranylgeranylation. In words: Western blot of Rap-1A geranylgeranylation/processing (antibody to un-geranylgeranylated Rap-1A) in treated cells. Particulars: MiaPaca, MDA-MB-468 and MDA-MB-231 human cancer cells; FIG. 13. The format is cell-based. The method, then: (§2) The ability of FGTI-2734 to inhibit HDJ-2 farnesylation and Rap-1A geranylgeranylation in human cancer cells was determined next. To this end, the MiaPaca pancreatic cancer cell line and 2 breast cancer cell lines (MDA-MB-468 and MDA-MB-231) were treated with various concentration of the dual inhibitor FGTI-2734, the GGT-1 inhibitor GGTI-2418 or the FT inhibitor FTI-2153 and processed for Western blotting.
(§3) Testing has shown that the dual farnesyltransferase and geranygeranyltransferase-I inhibitors are effective on pancreatic tumors (90% of all cases), colonic tumors (30% of all cases), lung tumors (30% of all cases), and breast tumors (10% of all cases). NIH-3T3 cells that overexpress oncogenic mutant K-Ras, seen in FIG. 14, and MDA-MB-231 breast cancer cells with a naturally occurring K-Ras mutation, seen in FIG. 15, were treated with indicated concentrations of FGTI-2734, GGTI-2417 or FTI-2153. FGTI-2734 but not FTI-2153 or GGTI-2417 inhibited K-Ras prenylation. As expected, GGTI-2417 inhibited the processing of Rap1 but not HDJ-2 whereas FTI-2153 inhibited the processing of HDJ-2 but not Rap1.
(§4) Mammalian target of rapamycin (mTOR) is a serine/threonine phosphatidylinositol 3-kinase-related kinase responsible for cell growth, proliferation, cell survival, protein synthesis, and transcription. Alteration of the mTOR pathway, either through activation of oncogenes or inactivation of tumor suppressors, disrupts a signaling equilibrium and causes malignant transformation. Studies have shown that phosphorylated S6 (pS6) is related to mTOR pathway alterations, and is useful in determining PI3K-based cancer therapies (Aziz, et al. Phosphatidylinositol-3-Kinase as a Therapeutic Target in Melanoma. Clin Cancer Res. 2009, 15; 3029-3036). Two breast adenocarcinoma and a pancreatic carcinoma cell line were treated with indicated concentrations of FGTI-2734, GGTI-2417 or FTI-2153. Protein extracts were run on a Western Blot using antibody against pS6 (ser240/244) (Cell Signaling Technology, Inc., Danvers, Mass.). […]

The target in another assay is GGTase-I (Homo sapiens, UniProt P49354+P53609). Kind of assay: In vitro GGTase-I inhibition: incorporation of [3H]GGPP into recombinant H-Ras-CVLL. The format is biochemical. Particulars: average of n = 3 unless stated, errors are standard deviations, read-out: GGTase-1 IC50.
A further assay concerns farnesylation of H-Ras. Kind of assay: Whole cell inhibition of H-Ras processing (farnesylation), immunoblot, oncogenic H-Ras-transformed NIH3T3 cells. It is filed as cell-based, mouse. The procedure:
In vitro inhibition assays for FTase and GGTase-I were conducted by measuring the incorporation of [^3H]FPP and [^3H]GGPP into recombinant H-Ras-CVLS and H-Ras-CVLL, respectively, as previously described (Vogt, et al., Protein geranylgeranylation, not farnesylation, is required for the G1 to S phase transition in mouse fibroblasts. Oncogene, 1996, 13, 1991-1999). The in vivo inhibition of farnesylation and geranylgeranylation was determined based on the level of inhibition by synthetic compounds of H-Ras and Rap1A processing, respectively (Sun, et al., Both farnesyltransferase and geranylgeranyltransferase I inhibitors are required for inhibition of oncogenic K-Ras prenylation but each alone is sufficient to suppress human tumor growth in nude mouse xenografts. Oncogene, 1998, 16, 1467-1473). […] The separated proteins were transferred to nitrocellulose and immunoblotted using an anti-Ras antibody (Y13-258) or an anti-Rap1A antibody (SantaCruz Biotechnology, Santa Cruz, Calif.), respectively. Antibody reactions were visualized using either peroxidase-conjugated goat anti-rat IgG or goat anti-rabbit IgG (Jackson ImmunoResearch, West Grove, Pa.) and an enhanced chemiluminescence detection system.
Briefly, in vitro inhibition assays for hFTase and GGTase-I were carried out by measuring the incorporation of [^3H]FPP and [^3H]GGPP into recombinant H-Ras-CVLS and H-Ras-CVLL, respectively, as described previously (Vogt et al., Protein geranylgeranylation, not farnesylation, is required for G1 to S phase transition in mouse fibroblasts. Oncogene. 1996; 13:1991-1999). Whole cell inhibition of farnesylation and geranylgeranylation were determined based on the level of inhibition by synthetic compounds of H-Ras and Rap1A processing, respectively (Sun, et al., Both farnesyltransferase and geranylgeranyltransferase I inhibitors are required for inhibition of oncogenic K-Ras prenylation but each alone is sufficient to suppress human tumor growth in nude mouse xenografts. Oncogene. 1998; 16:1467-1473).

For another assay, the system named is p27Kip1. Kind of assay: Western blot of p27Kip1 protein levels. The format is cell-based. Particulars: human cancer cells; FIG. 17. The source says:
(§5) Mammalian target of rapamycin (mTOR) is a serine/threonine phosphatidylinositol 3-kinase-related kinase responsible for cell growth, proliferation, cell survival, protein synthesis, and transcription. Alteration of the mTOR pathway, either through activation of oncogenes or inactivation of tumor suppressors, disrupts a signaling equilibrium and causes malignant transformation. Studies have shown that phosphorylated S6 (pS6) is related to mTOR pathway alterations, and is useful in determining PI3K-based cancer therapies (Aziz, et al. Phosphatidylinositol-3-Kinase as a Therapeutic Target in Melanoma. Clin Cancer Res. 2009, 15; 3029-3036). Two breast adenocarcinoma and a pancreatic carcinoma cell line were treated with indicated concentrations of FGTI-2734, GGTI-2417 or FTI-2153. Protein extracts were run on a Western Blot using antibody against pS6 (ser240/244) (Cell Signaling Technology, Inc., Danvers, Mass.). […] Antibodies used were HDJ-2 (Lab Vision Corporation, Fremont, Calif.), Rapt (Santa Cruz Biotechnology, Santa Cruz, Calif.), K-Ras (EMD4 Biosciences (Calbiochem), Gibbstown, N.J.), P27 (BD Biosciences, San Jose, Calif.), Actin (Sigma-Aldrich, St. Louis, Mo.), Survivin (Santa Cruz Biotechnology, Santa Cruz, Calif.), and PARP (Roche, Indianapolis, Ind.).

In the next assay the test system is K-Ras prenylation. Kind of assay: Western blot of oncogenic K-Ras processing/prenylation. It is filed as cell-based. Particulars: NIH-3T3 overexpressing oncogenic mutant K-Ras (FIG. 14) and MDA-MB-231 (FIG. 15). The method, then: as §3
as §4, with “3029-3036).” for “3029-3036). Two breast adenocarcinoma and a pancreatic carcinoma cell line were treated with indicated concentrations of FGTI-2734, GGTI-2417 or FTI-2153. Protein extracts were run on a Western Blot using antibody against pS6 (ser240/244) (Cell Signaling Technology, Inc., Danvers, Mass.).”

For assay [2], the system named is mTOR signaling pathway (pS6). In words: Western blot of pS6 (ser240/244), mTOR pathway signaling. It is filed as cell-based, human. Particulars: two breast adenocarcinoma and a pancreatic carcinoma cell line; FIG. 16.
From the text: as §5

The test system of another assay is HDJ-2 farnesylation. In words: Western blot of HDJ-2 farnesylation/processing (gel shift) in treated cells. It is filed as cell-based. Particulars: MiaPaca, MDA-MB-468 and MDA-MB-231 human cancer cells; FIG. 13. The method, then: as §2, §3
Mammalian target of rapamycin (mTOR) is a serine/threonine phosphatidylinositol 3-kinase-related kinase responsible for cell growth, proliferation, cell survival, protein synthesis, and transcription. […]

The subject of another assay is MDA-MB-231. In words: MTT proliferation/viability assay. It is filed as cell-based. Particulars: Homo sapiens, MDA-MB-231, MDA-MB-231, breast. The procedure:
as §1

In the next assay the test system is NCI-H460. In words: MTT proliferation/viability assay. The format is cell-based. Particulars: Homo sapiens, NCI-H460, lung. The procedure: as §1

On to `Cn1cncc1CN(CCN(CC1CCCCC1)S(=O)(=O)c1ccccn1)c1ccc(C#N)cc1F` [21b, N-(2-((4-cyano-2-fluorophenyl)((1-methyl-1H-imidazol-5-yl)methyl)amino)ethyl)-N-(cyclohexylmethyl)pyridine-2-sulfonamide], for which, at hFTase (GGTase-I IC50 / hFTase IC50), the “selectivity (ratio of GGTase-I to FTase IC50s)” value turned out to be 2.1. The half-inhibitory concentration (IC50) on hFTase (in vitro, average of three independent assays (n = 3) unless stated, errors are standard deviations) was 0.25 ± 0.19 µM; in the assay with A549, 13.2 ± 3.64 µM; in the assay on Panc-1 it was 20.5 ± 3.18 µM; in the assay with HPDE-C7-Kras (Homo sapiens), 6.6 µM; in the assay on HPDE-C7-Kras (listed as FGTI-2734), 8.7 µM; at GGTase-I it was 0.52 ± 0.09 µM. Moreover, the IC50 is 88.7 ± 25.8 nM with farnesylation of H-Ras (Mus musculus, NIH3T3, whole cells, oncogenic H-Ras-transformed NIH3T3, n = 3 unless stated, read-out: H-Ras processing IC50); 89 ± 26 nM in the assay on farnesylation of H-Ras (whole cells, NIH 3T3, values in nM, listed as FGTI-2734, read-out: H-Ras processing IC50 (whole cell)); 12.2 ± 0.97 µM in the assay on MDA-MB-231; 7.19 ± 1.18 µM in the assay on NCI-H460. Moreover, the “inhibition of Rap-1A geranylgeranylation” value in assay [1] is “inhibited”. For the same compound, the p27Kip1 protein levels entry in the assay with p27Kip1 was “induces”. In addition, the “inhibition of K-Ras prenylation” value with K-Ras prenylation was “inhibited”. Moreover, the “mTOR pathway signaling, levels of pS6” value in assay [2] was “reducing the levels of pS6”. Besides, in the assay on HDJ-2 farnesylation, the “inhibition of HDJ-2 farnesylation” value is on record as “inhibited”.
